Measured values published in patent US20100292260A1, “6-VINYL PYRIMIDINE AND PYRIMIDINONE DERIVATIVES AND THE USE THEREOF” (priority 2005, published 2010).
Where two headings read alike, the source gives them in different places.

Legend:
[1] = test system: MT-4 cells; experiment: Cytotoxicity in mock-infected MT-4 cells (MTT); type: cell-based
Experimental: (§1) The biological activity of the compounds was evaluated on lymphoid cell lines MT-4 against the wild strain of HIV-1 NL4-3. The MT-4 cells were briefly infected with the appropriate HIV-1 or the infection was simulated to determine the cytoxicity, in the presence of different concentrations of potential inhibitor compounds. 5 days after the infection a colorimetric method was used that involves using a tetrazole salt (MTT) to evaluate the number of surviving cells. The mutant IRLL98 HIV-1 contains the following mutations in the coding sequence for RT:M41L, D67N, Y181C, M184V, R211K, T215Y (resistance to NRTI) and the mutations K101Q, Y181C, G190A (resistance to NNRTI). The H1V-1 mutants containing multi-NNRTI mutations, K103N or Y188L as mutants were supplied by the Medical Research Council Centralised Facility for AIDS Reagents, Herfordshire, UK.

[2] = test system: HIV-1 mutant Y181L; experiment: Inhibition of viral proliferation on culture cells (MT-4, MTT), Y181L mutant; type: cell-based
[3] = test system: HIV-1 mutant K103N; experiment: Inhibition of viral proliferation on culture cells (MT-4, MTT), K103N mutant; type: cell-based
Experimental: as §1

[4] = test system: wild strain of HIV-1 NL4-3; experiment: Inhibition of viral proliferation on culture cells (MT-4, MTT), wild strain; type: cell-based
Experimental: as §1

[5] = target: T1, HIV-1 (recombinant) reverse transcriptase (Human immunodeficiency virus type 1 group M subtype B, UniProt P03366); experiment: Enzyme test: reverse transcription reaction in vitro with recombinant RT, wild type; type: biochemical; conditions: for IC50: Table 1, recombinant RT wild type, read-out: ID50 WT
T1 construct: 20-50 nM HIV-1 (recombinant) reverse transcriptase
Experimental: (§2) In a final volume of 25 microlitres the following reagents were mixed: 50 mM Tris-HCl pH 7.5, 0.25 mg/ml BSA, 0.5 mM DTT, 20-50 nM HIV-1 (recombinant) reverse transcriptase, nucleotide substrate dTTP marked radioactively (^3H, 4 Ci/mmol) and nucleic acid (poly(rA)/oligo(dT)). The concentrations of dTTP and poly(rA)/oligo(dT) in standard conditions were 5 μM and 0.5 μM, respectively.
(§3) The reaction mixture is incubated 10 min. at 37° C. and 20 μl are removed and deposited on a GF/C Whatman glass fibre filter measuring 25 mm in diameter. The filters are washed 3 times for 5 min. in 5% trichloroacetic acid and once for 5 min. in absolute alcohol. After being dried, the filters are immersed in a scintillating mixture (Packard) and the acid precipitable radioactivity is measured by a scintillation counter for β-emitting isotopes (Beckman).
(§4) The dose-response curves obtained by means of samples of enzyme activity in the presence of increasing doses of inhibitor were analysed according to the equation E(%)=Emax/([…], where E(%) is the fraction of enzyme activity that is measurable in the presence of each concentration of inhibitor, Emax is the activity in the absence of an inhibitor, I is the concentration of inhibitor. The ID50 was calculated by analysing data using the GraphPad Prism graphic interpolation programme (for Macintosh).

[6] = Cytotoxicity in mock-infected MT-4 cells (MTT); type: cell-based; conditions: human
Experimental: as §1

[7] = target: T2, reverse transcriptase containing the mutation K103N (Human immunodeficiency virus type 1 group M subtype B, UniProt P03366, K702N); experiment: Enzyme test with mutated reverse transcriptase K103N; type: biochemical, HIV-1
T2 construct: cloning the gene of the mutated RT in an expression vector for prokariotic cells; made in house
Experimental: as §2, §3
(§5) In some experiments, the HIV-1 recombinant reverse transcriptase was substituted by a reverse transcriptase containing the mutations K.103N and Y181I. They were produced by cloning the gene of the mutated RT in an expression vector for prokariotic cells according to the method reported in the literature (Maga G, Amacker M, Ruel N, Hubscher U, Spadari S. Resistance to nevirapine of HIV-1 reverse transcriptase mutants: loss of stabilizing interactions and thermodynamic or steric barriers are induced by different single amino acid substitutions. J Mol Biol. Dec. 19, 1997; 274(5):738-47).
as §4

[8] = target: T3, reverse transcriptase containing the mutation Y181I (Human immunodeficiency virus type 1 group M subtype B, UniProt P03366, Y780I); experiment: Enzyme test with mutated reverse transcriptase Y181I; type: biochemical, HIV-1
T3 construct: cloning the gene of the mutated RT in an expression vector for prokariotic cells; made in house
Experimental: as §2, §3, §5, §4

[9] = test system: HIV-1 mutant Y181C; experiment: Inhibition of viral proliferation on culture cells (MT-4, MTT), Y181C mutant; type: cell-based; conditions: Table 3; at 56.18
Experimental: as §1

[10] = test system: HIV-1 mutant Y188L; experiment: Inhibition of viral proliferation on culture cells (MT-4, MTT), Y188L mutant; type: cell-based; conditions: Table 3; cell test; read-out: Y188L
Experimental: as §1

[11] = Table 1, MT-4 cells, read-out: EC50 NL4-3 wt
[12] = Human immunodeficiency virus 1, MT4, read-out: EC50 Y181L
[13] = Human immunodeficiency virus 1, MT4, read-out: EC50 K103N
[14] = Human immunodeficiency virus 1, NL43, MT4, read-out: EC50 NL4-3 wt

Compound	CC50 [1]	EC50 [4, 11]	IC50 [5]	CC50 at 5 days [6]	EC50 [2, 12]	EC50 [3, 13]	IC50 [7]	EC50 [4, 14]	IC50 [8]	further results
C=Cc1cc(N(CC)CC)nc(SCc2ccc(OC)cc2)n1 [6′a]	33 µM	> 33 µM	–	–	–	–	–	–	–	EC50 ([2]; Table 1, MT-4 cells, read-out: EC50 Y181L): > 35.8 µM; EC50 ([3]; Table 1, MT-4 cells, read-out: EC50 K103N): 3.6 µM
C=Cc1cc(N(CC)CC)nc(S(=O)(=O)Cc2ccc(OC)cc2)n1 [8′]	42.9 µM	> 42.9 µM	467 µM	–	–	–	–	–	–	–
C=Cc1cc(N(C)C)nc(S(C)(=O)=O)n1 [Compound 8a]	–	–	0.022 µM	110 µM	> 110 µM	> 110 µM	28 µM	> 110 µM	78 µM	activity against enzyme with resistance mutation in position 103, in words [7]: significantly active; activity in cell tests on wild type, in words [4]: did not show appreciable activity; activity against enzyme with resistance mutation in position 181, in words [8]: significantly active; increase in activity in relation to the wild type enzyme [5]: 2900 times; inhibition of the RT at different concentrations of dTTP ([5]; FIG. 1): decreases with the increase of the concentrations of TTP; apparent affinity (Kapp) of the RT for dTTP ([5]; FIG. 2, different concentrations of 8a): decreases as the concentration of 8a increases; inhibition of the RT at different concentrations of poly(rA)/oligo(dT) ([5]; FIG. 3): increase of the capacity thereof to inhibit RT; preferred enzyme form bound ([5]; FIG. 3): preferentially binds to the binary complex of the RT with the nucleic acid; reverse transcriptase ID50 greater than that of MB3B ([5]; compared with MB3B): 3 orders of magnitude; action mechanism: inhibition of reverse transcriptase ([5]; versus nucleotide substrate): competitive with the nucleotide
C=Cc1nc(S(C)(=O)=O)nc(N(C)C)c1I [Compound 8b]	–	–	275 µM	22.9 µM	> 22.9 µM	> 22.9 µM	> 400 µM	> 22.9 µM	> 400 µM	–
COc1ccc(C#CCSc2nc(Cc3c(Cl)cccc3Cl)c(C)c(=O)[nH]2)cc1 [Compound 27c]	–	–	–	–	–	–	–	–	–	CC50 ([1]; Table 3, read-out: CC50): > 56.2 µM; EC50 ([3]; Table 3, cell test, read-out: K103N): > 56.2 µM; EC50 ([4]; Table 3, cell test, read-out: NLA-3wt): 2.47 µM; Y181C, % at given concentration [9]: 40% at; EC50 [10]: > 56.2 µM
